How the values were obtained:
[1] = test system: TEL-cKIT/Y823D-BaF3 mouse tumor model; assay: Tumor-grafted mouse model established with TEL-cKIT/Y823D-BaF3 cells; format: in vivo; details: oral, every day
Experimental: (§1) In this example Compound 1 and Compound 2 were respectively tested in TEL-cKIT/T670I-BaF3, TEL-cKIT/Y823D-BaF3, TEL-cKIT/D820G-BaF3 and GIST-T1-T670I mouse models.
(§2) Experimental protocols were as follows. • (1) Bal b/c female mice aged 4-6 weeks were purchased from Beijing Weitong Lihua Laboratory Animal Co., Ltd., and the mice were raised in an SPF laboratory. The drinking water and padding were sterilized by autoclaving. All operations on mice were conducted under aseptic conditions. • (2) About 5×10^6 TEL-cKIT/T670I-BaF3, TEL-cKIT/Y823D-BaF3, TEL-cKIT/D820G-BaF3 or GIST-T1-T670I cells were respectively injected subcutaneously onto the left back of all mice on Day 0. • (3) From Day 6, for the TEL-cKIT/T670I-BaF3 mouse model the corresponding mice were administrated orally every day with methylcellulose (HKI) as the vehicle (5 mice); with Compound 1 and Compound 2 at a dosage of 10 mg/kg, 20 mg/kg, 40 mg/kg, 100 mg/kg mouse weight (5 mice in each group); and with Sunitnib (purchased from MedChemExpress, China) at a dosage of 40 mg/kg mouse weight (5 mice). From day 6, for the TEL-cKIT/Y823D-BaF3 and TEL-cKIT/D820G-BaF3 mouse models the corresponding mice were administrated orally every day with methylcellulose (HKI) as the vehicle (5 mice); with Compound 1 and Compound 2 at a dosage of 40 mg/kg, 80 mg/kg mouse weight (5 mice in each group); and with Sunitnib (purchased from MedChemExpress, China) at a dosage of 40 mg/kg mouse weight (5 mice). From day 15, for the GIST-T1-T670I mouse model the corresponding mice were administrated orally every day with methylcellulose (HKI) as the vehicle (5 mice); with Compound 1 and Compound 2 at a dosage of 20 mg/kg, 40 mg/kg, 80 mg/kg mouse weight (5 mice in each group); and with Sunitnib at a dosage of 40 mg/kg mouse weight (5 mice). • (4) From day 6 (TEL-cKIT/T670I-BaF3, TEL-cKIT/Y823D-BaF3, TEL-cKIT/D820G-BaF3 mouse model) and From day 15 (GIST-T1-T670I mouse model), respectively, the length/width of the subcutaneous tumor were measured with a vernier caliper every day and the body weight of the mouse was recorded every day so as to determine the effects of Compound 1 and Compound 2 on the body weight and tumor size of the mice, respectively. • (5) The mice were sacrificed on Day 11 after administration for the TEL-cKIT/T670I-BaF3 mouse model, on Day 9 after administration for the TEL-cKIT/Y823D-BaF3 and TEL-cKIT/D820G-BaF3 mouse models, and on Day 28 after administration for the GIST-T1-T670I mouse model. The subcutaneous tumors were taken out, and the tumors were weighed and compared. • (6) The growth trend of subcutaneous tumors was calculated and the tumor size was calculated according to: length×width×width/2 mm^3.

[2] = test system: GIST-T1-T670I mouse tumor model; assay: Tumor-grafted mouse model established with GIST-T1-T670I cells; format: in vivo; details: oral, every day
Experimental: as §1, §2

| SMILES | inhibitory effects against tumor in mice ([1]; 40 mg/kg) | tumor inhibition rate ([1]; 40 mg/kg) [%] | influence on mice weight [1] | inhibitory effects against tumor in mice ([2]; 40 mg/kg) | tumor inhibition rate ([2]; 40 mg/kg) [%] | influence on mice weight [2] |
| --- | --- | --- | --- | --- | --- | --- |
| COc1cc2nccc(Oc3ccc(NC(=O)Cc4ccc(Cl)c(C(F)(F)F)c4)cc3)c2cc1OC [Example 2, N-(4-((6,7-dimethoxyquinolin-4-yl)oxy)phenyl)-2-(4-chloro-3-(trifluoromethyl)phenyl)-acetamide] | excellent inhibitory effects against tumor in mice | ≥ 80 | without significant influence on mice weight | excellent inhibitory effects against tumor in mice | ≥ 80 | without significant influence on mice weight |
| COc1cc2nccc(Oc3ccc(NC(=O)Cc4ccc(C)c(C(F)(F)F)c4)cc3)c2cc1OC [Example 1, N-(4-((6,7-dimethoxyquinolin-4-yl)oxy)phenyl)-2-(4-methyl-3-(trifluoromethyl)phenyl)acetamide] | excellent inhibitory effects against tumor in mice | – | without significant influence on mice weight | excellent inhibitory effects against tumor in mice | – | without significant influence on mice weight |

Reference: patent US12404244B2, “Pan-KIT kinase inhibitor having quinoline structure and application thereof” (Tarapeutics Science Inc., priority 2018, dated 2025)
